The values below come from US7846910B2, “Pharmaceutical composition, composition for screening therapeutics preventing and treating beta amyloid accumulation in brain comprising GCP II (glutamate carboxypeptidase II) as an active ingredient and method for screening using the same” (Korea Center for Disease Control and Prevention, priority 2005, dated 2010).

The subject of data set [1] is insulin β-chain. The data set can be described thus: GCP-II substrate specificity, MALDI-TOF molecular weight analysis. In kind it is biochemical. Conditions: 37° C. for 15 hours. Here is the method: (§1) To investigate whether GCP-II degrades Aβ specifically, GCP-II was reacted with amylin and ACTH (adrenocorticotropic hormone) or insulin β-chain at 37° C. for 15 hours, followed by measuring the molecular weight of each sample with a molecular weight analyzer (FIG. 7).

Data set [2] has as its system amylin. The data set is described as above. In kind it is biochemical. Conditions: 37° C. for 15 hours. Here is the method:
as §1

In data set [3] the test system is ACTH (adrenocorticotropic hormone). Described as above. The following applies: 37° C. for 15 hours. In kind it is biochemical. How it is done:
as §1

The test system of data set [4] is Aβ40. Description: Aβ degradation in primary cortical cells over-expressing GCP-II by lenti-virus (ELISA). The following applies: infected by 10, 20 and 50 MOI for three days, Aβ40 added for 20 hours. Type of data set: cell-based, rat. The source says: To investigate whether Aβ degradation effect of GCP-II was still observed in cortical cells or not, GCP-II was over-expressed in primary cortical cells by using lenti-virus, and then the level of Aβ degradation was investigated.
To investigate whether the expression of GCP-II can degrade Aβ in cortical cells, GCP-II was over-expressed in the primary cortical cells by using lenti-virus, followed by investigation of Aβ degradation (FIG. 2). The primary cortical cells were separated and cultured from E16 rats (Sprague-Dawley rats). To prevent non-neuronal cells, which took less than 10% in the culture cells, from spreading, the cells were transferred and further cultured in a 24 well plate (1×10^5 cells/well) containing 5-fluoro-2-deoxyuridine from the 3-6 days after the first culture. To prepare lenti-virus expressing GCP-II, GCP-II was inserted into pLentiH1.2 vector (named ‘pLentiH1.2-GCPII’, which was then introduced into 293T cells along with pLentiH1.2-GCP-II and packaging construct and envelope construct. Forty eight hours later, the concentration of the virus released in the medium was measured.
The primary cortical cells were infected with Lenti-GCP-II for three days, to which Aβ40 was added for 20 hours. Then, the level of Aβ remaining in the medium was measured by ELISA as explained in Example 1. […]
In general terms: An ELISA detects its analyte on a solid surface through an enzyme-linked reagent.

Data set [5] has as its system synthetic Aβ40 or Aβ42. Description: Aβ degradation in HEK293 cells over-expressing GCP-II (ELISA of remaining Aβ in medium). Type of data set: cell-based, human. Here is the method:
To investigate the Aβ degradation by GCP-II, synthetic Aβ40 (FIG. 1A) or Aβ42 (FIG. 1B) was added to the cell culture solution containing HEK293 cells over-expressing GCP-II and HEK293 cells over-expressing NEP and IDE which are known as Aβ degrading enzymes. After reaction, the level of Aβ in the medium was measured by ELISA.
To measure the level of Aβ degradation by GCP-II, 2 ng/uL of synthetic Aβ40 or Aβ42 (Biosource international INC.) was added to HEK293 cell culture medium. Twenty hours later, the remaining Aβ in the medium was quantified by ELISA kit (Biosource international INC.).
HEK293 cells (human embryonic kidney cells) over-expressing GCP-II were temporarily transfected with GCP-II expression vector ‘pHA-GCPII’ or ‘pmyc-GCPII’ prepared in the above Example <1-1>, by using a transfection reagent (Lipofectamine Plus™ Reagent, Invitrogen, USA). The HEK293 cells with the temporary insertion of GCP-II were cultured in DMEM (Dulbecco's modified Eagle's medium) supplemented with 10% FBS (fetal bovine serum), 100 IU/ml of penicillin and 100[…]/ml of streptomycin. Cell lysate was obtained from the HEK293 cells by using RIPA buffer containing a protease inhibitor (aprotinin, leupeptin or phenylmethyl sulfonyl fluoride), and GCP-II protein was separated with 8% SDS-PAGE to examine the expression of GCP-II.
HEK293 cells transfected with NEP and IDE plasmids were used as a positive control and the cells transfected with mock vector were used as a negative control. The expressions of human GCP-II and NEP in the transfected HEK293 cells were investigated by Western blot analysis using anti-GCP-II antibody (MAB544B, Maine Biotechnology) or anti-NEP antibody (L-CD10-270, Novocastra) respectively (FIG. 1C).

Data set [6] can be described thus: Enzyme activity (Km) of purified rGCP-II, [3H] glutamate release. In kind it is biochemical. Conditions: 0.002-2 μM substrate, 37° C. Here is the method:
The enzyme activity of rGCP-II was saturated from 1.0 μM of N-acetyl-L-aspartyl-L-[3,4-^3H] and as a result, the Km value of rGCP-II was determined to be 0.5 μM.

For data set [7], the system named is Aβ monomer and oligomer (multimer). Description: Degradation of Aβ monomer and multimer by rGCP-II (Western blotting). Type of data set: biochemical. The following applies: Aβ matured for 7 days, reacted 20 hours, increasing GCP-II concentration. How it is done:
Western blotting was performed using anti-Aβ antibody (6E10) more than 5 times (FIG. 9A) and the results were quantified by an image program (Image J program, NIH, USA) (FIG. 9B).
On the technique in general: Immunoblotting shows a protein as a band on a membrane.

Data set [8] deals with soluble Aβ40 and insoluble Aβ40. Description: Degradation of soluble and insoluble Aβ from cerebral cortex by rGCP-II. Type of data set: biochemical. How it is done:
The cerebral cortex was homogenized in 50 mM Tris-HCl (TBS) containing protease inhibitor cocktail (pH 7.6), followed by centrifugation at 4° C. with 100,000 g for 40 minutes. The supernatant was defined as a soluble fragment. The pellet was sonicated in 6 M guanidine-HCl solution containing protease inhibitor cocktail, which was defined as an insoluble fragment. The concentrations of each soluble Aβ and insoluble Aβ were measured.
The soluble Aβ or insoluble Aβ was co-cultured with rGCP-II.

Data set [9] deals with endogenous Aβ42. The data set can be described thus: Degradation of endogenous Aβ from swAPP stable HEK293 cells by rGCP-II (ELISA). The following applies: #2 colony of swAPP stable cells, 0, 0.5, 2.5 and 10[…]/μL of rGCP-II. In kind it is biochemical, human. The source says: To investigate whether human GCP-II can actually degrade endogenous Aβ a cell line stably expressing ^swAPP (Swedish mutant APP) gene involved in the over-production of Aβ was constructed. For this construction, ^swAPP was introduced into HEK293 cells, followed by selection with G418. The recovered medium was reacted with rGCP-II protein and then Aβ remaining unreacted in the medium was quantified by ELISA (FIG. 8).
The concentration of Aβ42 and the expression level of APP were used as standards for the selection of ^swAPP stable cell colonies. […] As a result, the level of endogenous Aβ42 was decreased. From the above result, it was confirmed that rGCP-II is able to degrade physiologically generated (endogenous) Aβ alike (FIG. 8B).

Data set [10] concerns the target T1, GCP-II (Mus musculus, UniProt O35409).
T1 construct: the cell membrane layer existed GCP-II was isolated from the mouse brain tissue; from tissue; host or cells: Brain membrane fraction of wild-type and APP Swedish/presenilin delta-9 transgenic mice
Description: GCP-II activity in brain tissue of mice treated with GCP-II inhibitor (3H-NAAG). In kind it is in vivo. The following applies: 10 mg/kg twice a week, 30 days. How it is done: (§2) To conform whether GCP-II can actually degrade over-expressing Aβ in vivo, the present inventors investigated Aβ degradation capacity by GCP-II inhibitor in a transgenic mouse over-expressing these Aβ. Concretely, after prepared genetically Aβover-expressing dementia model mouse (APP Swdish/presenilin delta 9 deltion, 12 weeks, The Hackson Laboratory, USA), injected into visceral cavity twice in a week, dosage of 10 mg/kg, 30 days. At this time, PBS used as a control. After finally injected GCP-II inhibitor, cerebral cortex, hippocampus and cerebellum in mouse brain was dissected and measured their weight respectively using microblance. And then, the above tissues were incubated in 6 M guanidine-hydrochrolide solution, room temperature, 4 hours and obtained supernatant by centrifugation after added iced PBS at 1/10 ratio. […] Then treated HRP (horseradish peroxidase) tagging secondly actibody, the above reactant was measured absorbance at 450 nm wavelength after treated stained using TMB (tetramethylbensidine). To conform whether GCP-II inhibitor was treated correctly, a part of the above mouse brain tissue were dissected and detected GCP-II activaty. […] In this manner, isolated sample were measured GCP-II activity using isotope meter.

For data set [11], the system named is Aβ40 and Aβ42. Description: Aβ yield in cerebral cortex of mice treated with GCP-II inhibitor (ELISA). In kind it is in vivo. Conditions: transgenic mouse (APP Swedish/presenilin delta 9), 10 mg/kg into visceral cavity twice a week, 30 days, PBS control. Here is the method: as §2
[12] abbreviates: GCP-II over-expressing HEK293 cells, compared with mock vector.

T1 sequence (O35409 whole entry): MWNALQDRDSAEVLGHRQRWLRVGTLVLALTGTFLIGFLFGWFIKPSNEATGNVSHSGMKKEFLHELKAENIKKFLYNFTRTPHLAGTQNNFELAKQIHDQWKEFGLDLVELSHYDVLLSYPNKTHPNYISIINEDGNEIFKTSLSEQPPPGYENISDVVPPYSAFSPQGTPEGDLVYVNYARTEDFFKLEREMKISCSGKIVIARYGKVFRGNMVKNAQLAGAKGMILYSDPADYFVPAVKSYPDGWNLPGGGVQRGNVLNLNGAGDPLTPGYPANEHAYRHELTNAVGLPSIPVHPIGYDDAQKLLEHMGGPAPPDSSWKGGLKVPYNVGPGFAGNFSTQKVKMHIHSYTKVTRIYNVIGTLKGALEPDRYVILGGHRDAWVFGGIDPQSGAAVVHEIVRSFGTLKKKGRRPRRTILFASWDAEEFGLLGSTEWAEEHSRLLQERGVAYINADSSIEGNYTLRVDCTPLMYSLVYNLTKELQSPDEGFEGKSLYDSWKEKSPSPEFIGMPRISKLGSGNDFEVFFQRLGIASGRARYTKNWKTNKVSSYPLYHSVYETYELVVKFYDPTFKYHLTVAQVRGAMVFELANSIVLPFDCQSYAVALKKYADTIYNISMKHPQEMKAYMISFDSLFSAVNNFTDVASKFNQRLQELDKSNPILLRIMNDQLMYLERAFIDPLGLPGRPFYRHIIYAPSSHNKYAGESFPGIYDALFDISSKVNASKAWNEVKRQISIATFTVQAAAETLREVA

Regarding “GCP-II: transmembrane metalloproteinase glutamate carboxypeptidase II (SEQ. ID. NO: 2), over-expressed in cells from pHA-GCPII or pMyc-GCPII”, the “degradation of insulin β-chain” value in [1] is “not degraded”. The “degradation of amylin (MALDI-TOF peaks)” value in [2] is “two peaks at 1500 and 2000”. For the same molecule, the “degradation of ACTH” value in data set [3] is on record as “not degraded”. In addition, the “Aβ reduction in primary cortical cells” value in [4] is “more than 90%”. Besides, in [5] (setting [12]), the “decrease of Aβ40 level in cell culture medium” value is 30% and the “decrease of Aβ42 level in cell culture medium” value came out at 30%. The “level of Aβ remaining in the culture medium” value in data set [5] (HEK293 cells expressing GCP-II, 20 hours after addition of Aβ, compared with cells transfected with mock vector) was found to be 60±5%.

By Km is commonly meant the substrate concentration at which the rate is half of its maximum. With “rGCP-II: recombinant GCP-II protein expressed in insect cells (Sf21) with baculovirus vector and purified on a Ni-chelating column”, in [6], the Km is 0.5 µM. The “degradation of Aβ oligomer versus monomer” value in data set [7] was “reduced faster than Aβ monomer”. For the same molecule, the “reduction of insoluble Aβ40” value in data set [8] (insoluble fragment of cerebral cortex co-cultured with rGCP-II) is listed as 35%. The “reduction of soluble Aβ40” value in data set [8] (soluble fragment of cerebral cortex co-cultured with rGCP-II) is on record as 20%. Besides, the “level of endogenous Aβ42” value in [9] was “decreased”.

As to `O=C(O)CCC(CP(=O)(O)O)C(=O)O` (stereo not shown) [2-PMPA], the “reduction of GCP-II activity in brain” value in data set [10] (transgenic mouse) is “about 30%”. Besides, the “reduction of GCP-II activity in brain” value in data set [10] (wild type mouse) is recorded as “about 50%”. In data set [11], the “increase of yield of Aβ42 in cerebral cortex versus control” value was “about 30%” and the “yield of Aβ40 in cerebral cortex versus control” value is reported as “no significantly difference”.
